Reference: ChEMBL document CHEMBL1133957, “A selective inhibitor of Escherichia coli prephenate dehydratase” (Bioorg Med Chem Lett, 2001)
Active and inactive are the calls of the source. No cut-off for these calls is given here.

Key:
[1] = Inhibitory activity against chorismate mutase; parameters: species or system Escherichia coli
Escherichia coli [2] = test: Inhibitory activity against (PDT22) Prephenate dehydratase at 500 uM
[3] = Inhibitory activity against (PDT22) Prephenate dehydratase; parameters: species or system Escherichia coli
[4] = Inhibitory activity against Chorismate mutase; parameters: species or system Escherichia coli
Escherichia coli [5] = test: Inhibitory activity against chorismate mutase; No inhibition
Escherichia coli [6] = test: Inhibitory activity against (PDT22) Prephenate dehydratase at 500 uM; No inhibition
Escherichia coli [7] = test: Inhibitory activity against chorismate mutase at 500 uM; No inhibition

What does the source list for `O=C(O)c1cc(O)c(O)cc1-c1c(C(=O)O)cccc1[N+](=O)[O-]`?
IC50 [1]: 1000 µM; inhibition (Escherichia coli [2]): < 25%

What does the source list for `O=C(O)c1cccc([N+](=O)[O-])c1-c1cccc(F)c1C(=O)O`?
IC50 [1]: 600 µM; IC50 [3]: 2250 µM

With `COc1cccc(C(=O)O)c1-c1ccccc1C(=O)O` as the compound, how does the IC50 [3] read?
The IC50 was 4000 µM.

Which IC50 [1] does the source give for `O=C(O)c1ccccc1-c1c(C(=O)O)cccc1[N+](=O)[O-]` here?
Its IC50 is 280 µM.

What about the IC50 [3] of the same compound?
The IC50 was 1900 µM.

Which results are given for `O=C(O)c1ccc([N+](=O)[O-])cc1-c1c(C(=O)O)cccc1[N+](=O)[O-]`?
IC50 [1]: 1150 µM; IC50 [3]: 750 µM

Which IC50 [1] does the source give for `O=C(O)c1cccc(C(=O)O)c1-c1c(C(=O)O)cccc1[N+](=O)[O-]` here?
Its IC50 is 450 µM.

And the IC50 [3]?
Its IC50 is 1700 µM.

Which IC50 [4] does the source give for `O=C(O)c1cc(C(=O)O)c(-c2ccccc2[N+](=O)[O-])c(C(=O)O)c1` here?
The IC50 was 3000 µM.

And the IC50 [3]?
Its IC50 is 1850 µM.

Which results are given for `O=C(O)c1ccc([N+](=O)[O-])c(-c2c(C(=O)O)cccc2[N+](=O)[O-])c1`?
IC50 [1]: 1350 µM; IC50 [3]: 550 µM

For `O=C(O)c1cccc([N+](=O)[O-])c1-c1c(C(=O)O)cccc1[N+](=O)[O-]`, which IC50 [1] is on record?
Its IC50 is 50 µM.

What about the IC50 [3] of the same compound?
Its IC50 is 600 µM.

With `COc1cccc(C(=O)O)c1-c1c(C(=O)O)cccc1[N+](=O)[O-]` as the compound, how does the IC50 [1] read?
Its IC50 is 800 µM.

And the IC50 [3]?
The IC50 was 3000 µM.

For `O=C(O)c1cc(O)ccc1-c1c(C(=O)O)cccc1[N+](=O)[O-]`, which IC50 [1] is on record?
The IC50 was 350 µM.

And the IC50 [3]?
Its IC50 is 950 µM.

With `O=C(O)c1ccccc1-c1c(O)cccc1C(=O)O` as the compound, how does the IC50 [1] read?
The IC50 was 1000 µM.

And the IC50 [3]?
Its IC50 is 2900 µM.

With `CC(=O)Nc1cccc(C(=O)O)c1-c1c(NC(C)=O)cccc1C(=O)O` as the compound, how does the inhibition (Escherichia coli [5]) read?
The inhibition was “inactive”.

And the inhibition (Escherichia coli [6])?
The inhibition was “inactive”.

With `Cc1cccc(C(=O)O)c1-c1c(C(=O)O)cccc1[N+](=O)[O-]` as the compound, how does the IC50 [1] read?
The IC50 was 730 µM.

And the IC50 [3]?
Its IC50 is 1300 µM.

What does the source list for `O=C(O)c1ccccc1-c1ccccc1C(=O)O`?
inhibition (Escherichia coli [7]): inactive; inhibition (Escherichia coli [6]): inactive
